Assay: Stability of solid of type-G fenolamine crystal form (influencing factor experiment)
Format: physicochemical
Conditions: open watch glass; 60° C., 40° C., and 25° C., relative humidity 90%±5%, illumination 4500 lx±500 lx; 10 days, sampled Days 0, 5, 10; powder X-ray diffraction and gas chromatography
Procedure: Type-G fenolamine crystal form samples were placed in open clean watch glasses, and kept under conditions of a high temperature of 60° C., a high temperature of 40° C., and 25° C., a relative humidity of 90%±5%, and illumination at 4500 lx±500 lx for 10 days, and samples were taken on Days 0, 5, and 10. Powder X-ray diffraction (with a resultant pattern consistent to that in FIG. 1) and gas chromatography means were used for analysis. […] All of the products from Example 1 were subjected to this test and achieved the same effect.

COc1ccc(OC)c(/C(=C\c2ccc(O)c(OC)c2)C(=O)NCCc2ccc(O)cc2)c1 [type-G fenolamine crystal form, trans-2-(2,5-dimethoxyphenyl)-3-(4-hydroxy-3-methoxyphenyl)-N-(4-hydroxyphenylethyl)-acrylamide]
stability of the crystal form under conditions of high temperature, high humidity and light illumination: stable

Source: patent US11236041B2, “Type-G crystal form of fenolamine, preparation method, composition and use thereof” (INSTITUTE OF MATARIA MEDICA, CHINESE ACADEMY OF MEDICAL …, priority 2017, dated 2022)
